Test results taken from PMC10552892, “Ebselen oxide and derivatives are new allosteric HER2 inhibitors for HER2‐positive cancers” (Molecular Oncology, 2023).
Read-outs that look alike come from different tables or passages of the source.

Experiments:
MDA-MB-231 = assay: MTT proliferation assay, MDA-MB-231; format: cell-based, human; conditions: 10 μM
Description: (§1) Fig. 2 Ebselen oxide inhibits HER2 activation, cell proliferation, and anchorage‐independent growth of HER2^+ breast cancer cells. […] Blot and quantification of a representative experiment are shown out of 4 (A), 5 (B), or 2 (C) independent experiments. (D–F) Proliferation curves of HER2‐positive (SKBR3, D or BT474, E) or HER2‐negative (MDA‐MB‐231, F) breast cancer cell lines treated with vehicle or 10 μM ebselen oxide assessed by MTT assay. […] (G–I) Anchorage‐independent growth of SKBR3 (G), BT474 (H), or MDA‐MB‐231 (I) cells treated with vehicle or 10 μM ebselen oxide. […] Scale bars are […].

[1] = tested on: HBMECs overexpressing p95 HER2; assay: Proliferation of HBMECs overexpressing p95 HER2 (Incucyte); conditions: 5 μM, Incucyte 5 days
Description: 25.10^3 cells/96‐well transfected HBMECs or 9.10^3 cancer cells were seeded and monitored with an Incucyte S3 imaging system (Sartorius, Goettingen, Germany) using 10× objective every 2 h during 5 days. Confluency analyses were performed using the dedicated Incucyte analysis system.
(D–F) Proliferation was assessed by Incucyte during 5 days. Data are mean ± SEM of a representative experiment out of two independent experiments. Two‐way ANOVA followed by Bonferroni's multiple comparison test, ***P < 0.001, ****P < 0.0001.
(A-B) HBMECs transfected with empty vector (pRK5) or vectors encoding gD-HER2 WT, the truncated gD-
Proliferation was assessed by Incucyte during 5 days. Representative micrographs are shown (A).
Representative quantification of the proliferation (B) is shown where data are mean ± sem (n=8-12). Two-way
ANOVA followed byBonferroni’s multiple comparison test, *** P<0.001, **** P<0.0001. Scale bars are 100 µM.
vehicle, 5-10 µM Ebselen oxide or 5 µM AG1478. Proliferation was assessed by MTT assay during 3 days.
Data are mean ± sem (n=3). Two-way ANOVA followed by Bonferroni’s multiple comparison test, * P<0.05 **

[2] = target: T1, JMHER2/FERME interaction (biot-JMHER2 peptide and GST-FERME, N-terminal FERM domain of ezrin) (Homo sapiens, UniProt P04626); assay: AlphaScreen competition of HER2 juxtamembrane peptide / ezrin FERM domain interaction; format: binding; conditions: AlphaScreen, 20 h
T1 construct: purchased Proteogenix
Description: Biotinylated peptide derived from HER2 cytosolic juxtamembrane region (JMHER2, […] ) has been synthesized by Proteogenix (Schiltigheim, France). The binding reaction was described previously. Briefly, white 384‐well Optiplates (PerkinElmer, Whalham, MA, USA) were used to prepare GST‐FERME and biotinylated peptide in a binding buffer (PBS, pH 7.4, 5 mM MgCl2, and 0.02% CHAPS). GST‐FERME was incubated with biotinylated‐HER2 for 30 min at room temperature. AlphaScreen® Streptavidin Donor beads (20 μg·mL^−1) and Glutathione AlphaLISA® Acceptor Beads (20 μg·mL^−1) were added to the wells for overnight incubation in the dark and at room temperature. Light signal was detected with the EnVision® multilabel plate reader (PerkinElmer).
Ebselen came out as an interesting hit. Ebselen is a synthetic organoselenium compound with the anti‐inflammatory and antioxidant property that has been evaluated in clinical trials for ischemic stroke and acute hearing loss. However, in vivo, ebselen rapidly reacts with peroxynitrite to form ebselen oxide. […] In addition, using surface plasmon resonance (SPR), we confirmed that both compounds could directly bind to JMHER2 (Fig. 1E,F). […] The slight decrease in HER2 expression was not significant. To examine whether HER2 inhibition by ebselen oxide was dependent on JMHER2/FERME interaction, we transfected HBMEC cells with a previously described glycoprotein D‐tagged HER2 form mutated on the critical amino acids involved in ERM binding (gD‐HER2‐EBM*).

HER2 (pY1248) in SKBR3 = target: T2, HER2 (pY1248) in SKBR3 (Homo sapiens, UniProt P04626); assay: HER2 activation (pY1248-HER2) in SKBR3 cells, western/dot blot; format: cell-based; set-up: Inhibition of HER2 activation / HER2 inhibition, %: concentration or dose not given beside the values
T2 construct: host or cells: SKBR3
T2 sequence (P04626 23-1255): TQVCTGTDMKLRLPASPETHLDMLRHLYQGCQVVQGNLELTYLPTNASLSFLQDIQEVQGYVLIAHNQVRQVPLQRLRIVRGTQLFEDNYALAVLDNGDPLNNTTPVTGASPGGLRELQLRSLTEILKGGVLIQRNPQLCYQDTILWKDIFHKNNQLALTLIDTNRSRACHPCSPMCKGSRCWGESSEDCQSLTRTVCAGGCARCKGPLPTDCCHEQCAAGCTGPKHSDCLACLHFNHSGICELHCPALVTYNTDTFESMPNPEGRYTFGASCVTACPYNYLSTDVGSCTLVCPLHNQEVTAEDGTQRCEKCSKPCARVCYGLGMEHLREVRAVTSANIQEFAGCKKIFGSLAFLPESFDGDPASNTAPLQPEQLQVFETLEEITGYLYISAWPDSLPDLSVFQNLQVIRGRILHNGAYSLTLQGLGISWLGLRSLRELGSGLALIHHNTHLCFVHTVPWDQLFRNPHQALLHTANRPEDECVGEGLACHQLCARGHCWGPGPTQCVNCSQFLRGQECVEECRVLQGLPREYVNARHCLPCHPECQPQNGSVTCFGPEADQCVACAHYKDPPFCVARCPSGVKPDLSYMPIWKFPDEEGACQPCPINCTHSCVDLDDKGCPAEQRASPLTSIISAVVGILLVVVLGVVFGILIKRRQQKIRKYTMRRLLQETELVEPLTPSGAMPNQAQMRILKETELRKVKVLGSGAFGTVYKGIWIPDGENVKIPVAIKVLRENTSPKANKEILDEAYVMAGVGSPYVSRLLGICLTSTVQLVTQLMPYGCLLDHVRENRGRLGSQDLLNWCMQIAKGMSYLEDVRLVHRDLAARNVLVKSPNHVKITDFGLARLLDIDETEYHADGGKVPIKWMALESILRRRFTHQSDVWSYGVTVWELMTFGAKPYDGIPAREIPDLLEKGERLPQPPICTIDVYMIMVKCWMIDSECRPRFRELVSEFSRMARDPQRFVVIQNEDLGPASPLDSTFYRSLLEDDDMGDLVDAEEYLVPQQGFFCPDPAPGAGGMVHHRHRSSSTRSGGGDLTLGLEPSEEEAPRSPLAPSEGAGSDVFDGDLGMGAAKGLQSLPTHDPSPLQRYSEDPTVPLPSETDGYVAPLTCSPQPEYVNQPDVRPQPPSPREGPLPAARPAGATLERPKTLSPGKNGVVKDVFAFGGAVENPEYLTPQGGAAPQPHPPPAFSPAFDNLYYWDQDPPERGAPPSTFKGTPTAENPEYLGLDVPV

[3] = target: T3, JMHER2 (peptide derived from the cytosolic juxtamembrane sequence of HER2) (Homo sapiens, UniProt P04626); assay: Surface plasmon resonance binding to immobilized HER2 juxtamembrane peptide; conditions: analyte 5 or 10 μM, 60 s injection
T3 construct: purchased Proteogenix
Description: Interaction was performed on a BIAcore T200 instrument BIAcore (Cytiva Life Sciences, Marlborough, MA, USA); GE Healthcare (Little Chalfont, UK). […] Ebselen or ebselen oxide was used as an analyte and injected at 5 or 10 μM at a flow rate of 25 μL·min^−1 for 60 s.

BT474 [4] = assay: MTT proliferation assay, BT474; format: cell-based, human; conditions: 10 μM
Description: as §1

NCI-N87 = assay: Proliferation of NCI-N87 cells; format: cell-based, human; conditions: ebselen oxide 7–10 μM, AG1478 5 μM
Description: Fig. 3 Ebselen oxide inhibits HER2 activation and HER2‐dependent proliferation in gastric and ovarian HER2^+ cancer cells. (A) HER2‐positive NCI‐87 gastric cancer cells were treated with ebselen oxide (0–20 μM) for 24 h, lysed, and analyzed by western blot using anti‐pY1248‐HER2, HER2, and β‐tubulin antibodies. A representative western blot is shown out of 4 independent experiments. (B) HER2‐positive SKOV3 ovarian cancer cells were treated with ebselen oxide (0–10 μM) for 24 h, lysed, and analyzed by western blot using anti‐pY1248‐HER2, HER2, and ezrin antibodies. A western blot is shown (n = 1). (C, D) Proliferation curves of NCI‐N87 gastric (C) or SKOV3 ovarian (D) cancer cells treated with vehicle or 7–10 μM ebselen oxide measured by MTT assay. Data are mean ± SEM (n = 9–12) of three independent experiments.
Supplementary figure 4: NCI-N87 and SKOV3 cancer cell lines are addicted to the HER2 pathway
(A) NCI-N87 cells were treated (+) or not (-) with a non-specific HER2 inhibitor AG1478 (5 µM). Whole cell lysates were analyzed by western blot with pY1248 HER2, HER2 and pERK antibodies.
(B) SKOV3 cells were treated (+) or not (-) with a non-specific HER2 inhibitor AG1478 (5 µM). Whole cell lysates were analyzed by western blot with pY1248 HER2, HER2, pERK or beta-tubulin antibodies.
(C) Proliferation curves of NCI-N87 treated or not with AG1478 (5 µM). Data are mean ± sem (n=4-6). 2- […]

[5] = target: T4, HER2 (pY1248) in MDA-MB-231 (Homo sapiens, UniProt P04626); assay: HER2 activation in MDA-MB-231 cells, western/dot blot; format: cell-based; conditions: MDA-MB-231, low HER2 expression
T4 construct: host or cells: MDA-MB-231
T4 sequence (P04626 23-1255): as above

BT474 [6] = assay: Soft agar anchorage-independent growth, BT474; format: cell-based, human; conditions: 10 μM
Description: A bottom layer of 0.8% agarose in DMEM supplemented with 20% FBS and penicillin/streptomycin was added to 24‐well plates before seeding 25.10^3 cells per well in a 0.6% agarose top layer. Cells were treated with a vehicle or with 10 μM ebselen oxide or derivatives. Treatments were renewed 3 times a week. After 6 weeks, colonies were visualized with a phase‐contrast microscope and their number and size were quantified using IMAGEJ software.
as §1

## O=C1c2ccccc2[Se](=O)N1c1ccccc1 (stereo not drawn) [Ebselen oxide, ebselen oxide]
MDA-MB-231
  Effect on proliferation rate: did not reduce
[1]
  Inhibition of cell proliferation induced by overexpression of p95 HER2: almost totally inhibited
[2]
  IC50: 0.634 µM
[2]; read-out: EC50, μM (inhibition of HER2-FERME interaction)
  EC50: 0.634 µM
HER2 (pY1248) in SKBR3; SKBR3, 24 h
  Inhibition of HER2 activation: 66%
HER2 (pY1248) in SKBR3; SKBR3, 24 h, read-out: EC50 (inhibition of HER2)
  EC50: 23.9 µM
HER2 (pY1248) in SKBR3; SKBR3, 48 h
  Inhibition of HER2 activation: 64%
HER2 (pY1248) in SKBR3; SKBR3, ebselen oxide 10 μM, lapatinib 10 nM
  Effect on HER2 activation, single agents and combination: partially decreased
HER2 (pY1248) in SKBR3; Table 1, HER2+ breast cancer cells (ebselen oxide value equals SKBR3 48 h)
  HER2 inhibition, %: 64.2%
HER2 (pY1248) in SKBR3; Table 1, HER2+ breast cancer cells (ebselen oxide value equals SKBR3 48 h), read-out: EC50, μM (HER2 inhibition)
  EC50: 26.9 µM
[3]
  Direct binding to JMHER2 (SPR): directly bind
BT474 [4]
  Reduction of proliferation rate: 55%
NCI-N87
  Effect on proliferation: reduced proliferation
[5]
  Effect on HER2 activation: no effect
BT474 [6]
  Reduction in the size of micro-colonies: > 50%
